Experiment [1] addresses human CB2 receptor (Homo sapiens (Human), UniProt P34972). Briefly: Radioligand binding assay, [3H]-CP-55,940, membranes of HEK cells expressing human CNR2. As to conditions: 2.6 nM [3H]-CP-55,940, HEK cell membranes, 1 h at 30° C. The procedure: (§1) Radioligand Binding Assay
(§2) The affinity of the compounds of the invention for cannabinoid receptors was determined using recommended amounts of membrane preparations (PerkinElmer) of human embryonic kidney (HEK) cells expressing the human CNR1 or CNR2 receptors in conjunction with 1.5 or 2.6 nM [3H]-CP-55,940 (Perkin Elmer) as radioligand, respectively. Binding was performed in binding buffer (50 mM Tris, 5 mM MgCl2, 2.5 mM EDTA, and 0.5% (wt/vol) fatty acid free BSA, pH 7.4 for CB1 receptor and 50 mM Tris, 5 mM MgCl2, 2.5 mM EGTA, and 0.1% (wt/vol) fatty acid free BSA, pH 7.4 for CB2 receptor) in a total volume of 0.2 mL for 1 h at 30° C. shaking. The reaction was terminated by rapid filtration through microfiltration plates coated with 0.5% polyethylenimine (UniFilter GF/B filter plate; Packard). Bound radioactivity was analyzed for Ki using nonlinear regression analysis (Activity Base, ID Business Solution, Limited), with the Kd values for [^3H]CP55,940 determined from saturation experiments.
The compounds according to formula (I) have an activity in the above assay (Ki) particularly of 0.5 nM to 10 μM, more particularly of 0.5 nM to 3 μM and most particularly of 0.5 nM to 100 nM.

For experiment [2], the target named is human CB1 receptor (Homo sapiens (Human), UniProt P21554). Put plainly: Radioligand binding assay, [3H]-CP-55,940, membranes of HEK cells expressing human CNR1. To be noted: 1.5 nM [3H]-CP-55,940, HEK cell membranes, 1 h at 30° C. The procedure:
as §1, §2

The structures appear in SMILES notation.

Sequence of human CB1 receptor (P21554 whole entry): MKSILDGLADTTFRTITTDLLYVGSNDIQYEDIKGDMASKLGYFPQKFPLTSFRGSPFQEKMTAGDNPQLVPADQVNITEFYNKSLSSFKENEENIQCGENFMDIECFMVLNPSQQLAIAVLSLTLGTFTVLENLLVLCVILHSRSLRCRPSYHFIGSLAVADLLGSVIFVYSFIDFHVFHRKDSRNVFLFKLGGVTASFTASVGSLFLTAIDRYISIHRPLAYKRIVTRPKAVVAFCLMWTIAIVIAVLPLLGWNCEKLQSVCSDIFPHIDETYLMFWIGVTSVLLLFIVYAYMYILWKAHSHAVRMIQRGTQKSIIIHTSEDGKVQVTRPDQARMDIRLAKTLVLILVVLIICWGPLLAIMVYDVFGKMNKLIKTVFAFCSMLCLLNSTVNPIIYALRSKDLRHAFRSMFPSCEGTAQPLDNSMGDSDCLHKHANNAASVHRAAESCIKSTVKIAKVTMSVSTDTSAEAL
Sequence of human CB2 receptor (P34972 whole entry): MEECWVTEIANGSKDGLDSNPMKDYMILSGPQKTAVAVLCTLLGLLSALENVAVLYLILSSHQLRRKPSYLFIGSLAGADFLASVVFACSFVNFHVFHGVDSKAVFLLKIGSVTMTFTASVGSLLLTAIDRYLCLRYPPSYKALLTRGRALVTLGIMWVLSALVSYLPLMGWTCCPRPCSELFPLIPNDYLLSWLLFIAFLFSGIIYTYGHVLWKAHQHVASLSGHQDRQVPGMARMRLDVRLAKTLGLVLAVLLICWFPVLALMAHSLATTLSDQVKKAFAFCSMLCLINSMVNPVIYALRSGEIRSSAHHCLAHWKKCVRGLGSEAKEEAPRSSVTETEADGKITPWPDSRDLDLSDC

Usually Ki stands for a dissociation constant, usually derived from enzyme kinetics or from competition with a known ligand. Regarding `Cc1nonc1Cn1nnc2c(N3CCC4(C3)N=N4)nc(C(C)(C)C)nc21` [Example 1, 5-tert-Butyl-3-[(4-methyl-1,2,5-oxadiazol-3-yl)methyl]-7-(1,2,5-triazaspiro[2.4]hept-1-en-5-yl)-3H-[1,2,3]triazolo[4,5-d]pyrimidine], the Ki in experiment [1] came out at 16.1 nM; in experiment [2], 2960 nM.
The like results for `FC(F)(F)c1ccccc1Cn1nnc2c(N3CCC4(C3)N=N4)nc(C(F)(F)c3ccccc3)nc21` [Example 2, 5-[Difluoro(phenyl)methyl]-7-(1,2,5-triazaspiro[2.4]hept-1-en-5-yl)-3-{[2-(trifluoromethyl)phenyl]methyl}-3H-[1,2,3]triazolo[4,5-d]pyrimidine] were, in that order, 0.8 nM and 993 nM.
The corresponding values for `CC(C)(C)c1nc(N2CCC3(C2)N=N3)c2nnn(Cc3ccccc3Cl)c2n1` [Example 3, 5-tert-Butyl-3-[(2-chlorophenyl)methyl]-7-(1,2,5-triazaspiro[2.4]hept-1-en-5-yl)-3H-[1,2,3]triazolo[4,5-d]pyrimidine] are 3.3 nM and 321 nM.
For the compound `CC(C)(C)c1nc(N2CCC(F)(F)C2)c2nnn(Cc3ccccc3C3(C(F)(F)F)N=N3)c2n1` [Example 4, 5-tert-Butyl-7-(3,3-difluoropyrrolidin-1-yl)-3-({2-[3-(trifluoromethyl)-3H-diaziren-3-yl]phenyl}methyl)-3H-[1,2,3]triazolo[4,5-d]pyrimidine], the Ki in experiment [1] stood at 4.2 nM; in experiment [2], 488 nM.
As to `C#Cc1ccccc1Cn1nnc2c(N3CCC4(C3)N=N4)nc(C(C)(C)C)nc21` [Example 5, 5-tert-Butyl-3-[(2-ethynylphenyl)methyl]-7-(1,2,5-triazaspiro[2.4]hept-1-en-5-yl)-3H-[1,2,3]triazolo[4,5-d]pyrimidine], the values for the Ki in experiment [1] and in experiment [2] were 5.6 nM and 132 nM, respectively.
With `FC(F)(c1ccccc1)c1nc(N2CCC3(C2)N=N3)c2nnn(Cc3ccccc3Cl)c2n1` [Example 6, 3-[(2-Chlorophenyl)methyl]-5-[difluoro(phenyl)methyl]-7-(1,2,5-triazaspiro[2.4]hept-1-en-5-yl)-3H-[1,2,3]triazolo[4,5-d]pyrimidine], the Ki in experiment [1] came to 9.9 nM; in experiment [2], 799 nM.
In the case of `Cc1nonc1Cn1nnc2c(N3CCC4(C3)N=N4)nc(C(F)(F)c3ccccc3)nc21` [Example 7, 5-[Difluoro(phenyl)methyl]-3-[(4-methyl-1,2,5-oxadiazol-3-yl)methyl]-7-(1,2,5-triazaspiro[2.4]hept-1-en-5-yl)-3H-[1,2,3]triazolo[4,5-d]pyrimidine], the Ki in experiment [1] worked out at 45.5 nM; in experiment [2], 5410 nM.
On to `CC(C)(C)c1nc(N2CCC(F)(F)C2)c2nnn(Cc3ccc(C4(C(F)(F)F)N=N4)cc3Cl)c2n1` [Example 8, 5-tert-Butyl-3-({2-chloro-4-[3-(trifluoromethyl)-3H-diaziren-3-yl]phenyl}methyl)-7-(3,3-difluoropyrrolidin-1-yl)-3H-[1,2,3]triazolo[4,5-d]pyrimidine], for which the Ki was 55.6 nM in experiment [1] and above 10000 nM in experiment [2].
The corresponding values for `C#CCCC1(CCNC(=O)c2nonc2Cn2nnc3c(N4CCC(F)(F)C4)nc(C(C)(C)C)nc32)N=N1` [Example 9, 4-{[5-tert-Butyl-7-(3,3-difluoropyrrolidin-1-yl)-3H-[1,2,3]triazolo[4,5-d]pyrimidin-3-yl]methyl}-N-{2-[3-(but-3-yn-1-yl)-3H-diaziren-3-yl]ethyl}-1,2,5-oxadiazole-3-carboxamide] are 1160 nM and above 10000 nM.
Regarding `C#CCCC1(CCNC(=O)c2nonc2Cn2nnc3c(N4CC[C@H](O)C4)nc(C(C)(C)C)nc32)N=N1` [Example 10, 4-({5-tert-Butyl-7-[(3S)-3-hydroxypyrrolidin-1-yl]-3H-[1,2,3]triazolo[4,5-d]pyrimidin-3-yl}methyl)-N-{2-[3-(but-3-yn-1-yl)-3H-diaziren-3-yl]ethyl}-1,2,5-oxadiazole-3-carboxamide], the Ki is 200 nM in experiment [1] and above 10000 nM in experiment [2].
On to `C#Cc1ccccc1Cn1nnc2c(N3CCC4(C3)N=N4)nc(C(F)(F)c3ccccc3)nc21` [Example 11, 5-[Difluoro(phenyl)methyl]-3-[(2-ethynylphenyl)methyl]-7-(1,2,6-triazaspiro[2.4]hept-1-en-6-yl)triazolo[4,5-d]pyrimidine], for which the Ki in experiment [1] was 19 nM; in experiment [2] it was 465 nM.
Consider `C#Cc1cccc(C2(C(F)(F)F)N=N2)c1Cn1nnc2c(N3CCC(F)(F)C3)nc(C(F)(F)c3ccccc3)nc21` [Example 12, 5-[Difluoro(phenyl)methyl]-7-(3,3-difluoropyrrolidin-1-yl)-3-[[2-ethynyl-6-[3-(trifluoromethyl)diazirin-3-yl]phenyl]methyl]triazolo[4,5-d]pyrimidine], for which the Ki came out at 31 nM in experiment [1] and 3390 nM in experiment [2].
With `C#Cc1cccc(C2(C(F)(F)F)N=N2)c1Cn1nnc2c(N3CCC(F)(F)C3)nc(C(C)(C)C)nc21` [Example 13, 5-tert-Butyl-7-(3,3-difluoropyrrolidin-1-yl)-3-[[2-ethynyl-6-[3-(trifluoromethyl)diazirin-3-yl]phenyl]methyl]triazolo[4,5-d]pyrimidine], the results for the Ki in experiment [1] and in experiment [2] were 9 nM and 147 nM, respectively.
The like results for `C#Cc1cccc(C2(C(F)(F)F)N=N2)c1Cn1nnc2c(N3CC[C@H](O)C3)nc(C(C)(C)C)nc21` [Example 14, (3S)-1-[5-tert-Butyl-3-[[2-ethynyl-6-[3-(trifluoromethyl)diazirin-3-yl]phenyl]methyl]triazolo[4,5-d]pyrimidin-7-yl]pyrrolidin-3-ol] were, in that order, 12 nM and above 10000 nM.
As for `C#Cc1cccc(C2(C(F)(F)F)N=N2)c1Cn1nnc2c(N3CC[C@H](O)C3)nc(C(F)(F)c3ccccc3)nc21` [Example 15, (3S)-1-[5-[Difluoro(phenyl)methyl]-3-[[2-ethynyl-6-[3-(trifluoromethyl)diazirin-3-yl]phenyl]methyl]triazolo[4,5-d]pyrimidin-7-yl]pyrrolidin-3-ol], the Ki was 58 nM in experiment [1] and above 10000 nM in experiment [2].
